# Test results reported in patent publication US8450319B2, “Pyrrolopyridazinone compound” (Ube Industries, Ltd., priority 2006, dated 2013).
# Structures can show the parent of a compound that is named as a salt.
# System: not given
# Assay: not given
# Conditions: not given
row,Structure (SMILES),melting point
1,"CC(C)OCc1c(-c2ccc(OC(F)F)c(OC3CC3)c2)[nH]c2cn[nH]c(=O)c12 [Example 60, 2-(3-Cyclopropoxy-4-difluoromethoxyphenyl)-3-isopropoxymethyl-1,5-dihydropyrrolo[2,3-d]pyridazin-4-one]",196 to 197 °C
2,"C=CC(O)c1c(-c2ccc(OC(F)F)c(OC3CC3)c2)[nH]c2cn[nH]c(=O)c12 (stereo not drawn) [Example 75, 2-(3-Cyclopropoxy-4-difluoromethoxyphenyl)-3-(1-hydroxy-2-propenyl)-1,5-dihydropyrrolo[2,3-d]pyridazin-4-one]",202 to 203 °C
3,"CCCCc1c(-c2ccc(OC(F)F)c(OC3CC3)c2)[nH]c2cn[nH]c(=O)c12 [Example 8, 3-Butyl-2-(3-cyclopropoxy-4-difluoromethoxyphenyl)-1,5-dihydropyrrolo[2,3-d]pyridazin-4-one]",192 to 194 °C
4,"O=c1[nH]ncc2[nH]c(-c3ccc(OC(F)F)c(OC4CC4)c3)c(COCC3CC3)c12 [Example 59, 2-(3-Cyclopropoxy-4-difluoromethoxyphenyl)-3-cyclopropylmethoxymethyl-1,5-dihydropyrrolo[2,3-d]pyridazin-4-one]",170 to 172 °C
5,"COc1cccc(Cc2c(-c3ccc(OC(F)F)c(OC4CC4)c3)[nH]c3cn[nH]c(=O)c23)n1 [Example 28, 2-(3-Cyclopropoxy-4-difluoromethoxyphenyl)-3-(6-methoxy-2-pyridylmethyl)-1,5-dihydropyrrolo[2,3-d]pyridazin-4-one]",224 to 226 °C
6,"CC(C)Oc1cc(-c2cc3c(=O)[nH]ncc3[nH]2)ccc1OC(F)F [Example 39, 2-(4-Difluoromethoxy-3-isopropoxyphenyl)-1,5-dihydropyrrolo[2,3-d]pyridazin-4-one]",269 to 273 °C
7,"Cc1c(-c2ccc(OC(F)F)c3c2C=CC(C)(C)O3)[nH]c2cn[nH]c(=O)c12 (as salt: HCl) [Example 53, 2-(8-Difluoromethoxy-2,2-dimethyl-2H-chromen-5-yl)-3-methyl-1,5-dihydropyrrolo[2,3-d]pyridazin-4-one HCl adduct]",> 300 °C
8,"COc1ccc(-c2cc3c(=O)[nH]ncc3[nH]2)cc1OC1CCCC1 [Example 46, 2-(3-Cyclopentoxy-4-methoxyphenyl)-1,5-dihydropyrrolo[2,3-d]pyridazin-4-one]",290 °C (dec.)
9,"CCC(C)OCc1c(-c2ccc(OC(F)F)c(OC3CC3)c2)[nH]c2cn[nH]c(=O)c12 (stereo not drawn) [Example 63, 3-(sec-Butoxymethyl)-2-(3-cyclopropoxy-4-difluoromethoxyphenyl)-1,5-dihydropyrrolo[2,3-d]pyridazin-4-one]",103 to 106 °C
10,"COc1ccc(-c2[nH]c3cn[nH]c(=O)c3c2Cl)cc1OCC1CC1 [Example 47, 3-Chloro-2-(3-cyclopropylmethoxy-4-methoxyphenyl)-1,5-dihydropyrrolo[2,3-d]pyridazin-4-one]",256 to 258 °C
11,"COc1ccc(-c2[nH]c3cn[nH]c(=O)c3c2Cl)cc1OC1CC1 [Example 42, 3-Chloro-2-(3-cyclopropoxy-4-methoxyphenyl)-1,5-dihydropyrrolo[2,3-d]pyridazin-4-one]",293 to 294 °C
12,"O=c1[nH]ncc2[nH]c(-c3ccc(OC(F)F)c(OC4CC4)c3)c(CO)c12 [Example 10, 2-(3-Cyclopropoxy-4-difluoromethoxyphenyl)-3-hydroxymethyl-1,5-dihydropyrrolo[2,3-d]pyridazin-4-one]",190 to 191 °C
13,"CCCc1c(-c2ccc(OC(F)F)c(OC3CC3)c2)[nH]c2cn[nH]c(=O)c12 [Example 6, 2-(3-Cyclopropoxy-4-difluoromethoxyphenyl)-3-propyl-1,5-dihydropyrrolo[2,3-d]pyridazin-4-one]",208 to 210 °C
14,"O=c1[nH]ncc2[nH]c(-c3ccc(OC(F)F)c(OC4CCC4)c3)c(Cl)c12 [Example 32, 3-Chloro-2-(3-cyclobutoxy-4-difluoromethoxyphenyl)-1,5-dihydropyrrolo[2,3-d]pyridazin-4-one]",273 to 275 °C
15,"CCc1c(-c2ccc(OC(F)F)c(OCC3CC3)c2)[nH]c2cn[nH]c(=O)c12 (as salt: HCl) [Example 37, 2-(3-Cyclopropylmethoxy-4-difluoromethoxyphenyl)-3-ethyl-1,5-dihydropyrrolo[2,3-d]pyridazin-4-one HCl adduct]",224 to 227 °C
16,"CC(C)Oc1cc(-c2[nH]c3cn[nH]c(=O)c3c2Cl)ccc1OC(F)F [Example 40, 3-Chloro-2-(4-difluoromethoxy-3-isopropoxyphenyl)-1,5-dihydropyrrolo[2,3-d]pyridazin-4-one]",248 to 262 °C
17,"COc1ccc(-c2[nH]c3cn[nH]c(=O)c3c2Cl)cc1OC1CCC1 [Example 45, 3-Chloro-2-(3-cyclobutoxy-4-methoxyphenyl)-1,5-dihydropyrrolo[2,3-d]pyridazin-4-one]",285 to 287 °C
18,"N#Cc1cccc(Cc2c(-c3ccc(OC(F)F)c(OC4CC4)c3)[nH]c3cn[nH]c(=O)c23)c1 [Example 26, 3-(3-Cyanobenzyl)-2-(3-cyclopropoxy-4-difluoromethoxyphenyl)-1,5-dihydropyrrolo[2,3-d]pyridazin-4-one]",130 to 135 °C

# Further lines, results first:
row,melting point,Structure (SMILES)
1,287 to 292 °C,"O=c1[nH]ncc2[nH]c(-c3ccc(OC(F)F)c(OC4CC4)c3)cc12 [Example 1, 2-(3-Cyclopropoxy-4-difluoromethoxyphenyl)-1,5-dihydropyrrolo[2,3-d]pyridazin-4-one]"
2,265 to 267 °C,"CC(C)c1c(-c2ccc(OC(F)F)c(OC3CC3)c2)[nH]c2cn[nH]c(=O)c12 [Example 7, 2-(3-Cyclopropoxy-4-difluoromethoxyphenyl)-3-isopropyl-1,5-dihydropyrrolo[2,3-d]pyridazin-4-one]"
3,208 to 210 °C,"O=c1[nH]ncc2[nH]c(-c3ccc(OC(F)F)c(OC4CC4)c3)c(Cc3cccc(F)c3)c12 [Example 23, 2-(3-Cyclopropoxy-4-difluoromethoxyphenyl)-3-(3-fluorobenzyl)-1,5-dihydropyrrolo[2,3-d]pyridazin-4-one]"
4,191 to 193 °C,"CCCCCc1c(-c2ccc(OC(F)F)c(OC3CC3)c2)[nH]c2cn[nH]c(=O)c12 [Example 68, 2-(3-Cyclopropoxy-4-difluoromethoxyphenyl)-3-pentyl-1,5-dihydropyrrolo[2,3-d]pyridazin-4-one]"
5,104 to 107 °C,"COCc1c(-c2ccc(OC(F)F)c(OC3CC3)c2)[nH]c2cn[nH]c(=O)c12 [Example 11, 2-(3-Cyclopropoxy-4-difluoromethoxyphenyl)-3-methoxymethyl-1,5-dihydropyrrolo[2,3-d]pyridazin-4-one]"
6,294 to 295 °C,"O=c1[nH]ncc2[nH]c(-c3ccc(OC(F)F)c(OCC4CC4)c3)cc12 [Example 35, 2-(3-Cyclopropylmethoxy-4-difluoromethoxyphenyl)-1,5-dihydropyrrolo[2,3-d]pyridazin-4-one]"
7,293 to 296 °C (dec.),"COc1ccc(-c2[nH]c3cn[nH]c(=O)c3c2Br)cc1OC1CC1 [Example 43, 3-Bromo-2-(3-cyclopropoxy-4-methoxyphenyl)-1,5-dihydropyrrolo[2,3-d]pyridazin-4-one]"
8,245 to 246 °C,"Cc1c(-c2ccc(OC(F)F)c(OC3CC3)c2)[nH]c2cn[nH]c(=O)c12 [Example 4, 2-(3-Cyclopropoxy-4-difluoromethoxyphenyl)-3-methyl-1,5-dihydropyrrolo[2,3-d]pyridazin-4-one]"

# Target: PDE4
# Assay: Measurement of PDE4 enzyme inhibiting action
# Assay type: biochemical, human
# Conditions: PDE4 enzyme solution from polymorphonuclear leukocytes of healthy volunteer; 0.2 μM [3H]cAMP, 30° C., 30 minutes; read-out: PDE4 inhibition IC50 value
# Method: Preparation of a PDE4 enzyme solution was carried out according to the method of Cooper et al. (Br. J. Pharmacol., 126, 1863 (1999)) by modifying a part thereof. Heparin-treated peripheral blood from healthy volunteer was stratified by a blood cell separating solution (Polymorphprep™, available from AXIS-SHIELD PoC AS CO.), and centrifugation was carried out at 20° C. with 1900 rpm for 27 minutes to obtain polymorphonuclear leukocytes. The polymorphonuclear leukocytes were washed with a Hanks' balanced salt solution, then, a mixed solution comprising 70% of 10 mM 3-morpholinopropane sulfonic acid buffer solution (pH 7.4) containing 1 mM EGTA, 1 mM magnesium acetate and 5 mM dithiothreitol and 30% of ethylene glycol was added thereto to dissolve the same under ice-cooling, and the obtained cell dissolved solution was used as a PDE4 enzyme solution.
# Measurement of PDE4 activity was carried out according to the method of Owens, et al. (Biochem. J., 326, 53 (1997)) by modifying a part thereof. The PDE4 enzyme solution was incubated with a compound to be tested dissolved in dimethylsulfoxide in 80 mM Tris-HCl buffer solution (pH 7.4) containing 0.2 μM [^3H] cAMP, 0.1 mM cGMP, 20 mM MgCl2 and 12 mM 2-mercaptoethanol at 30° C. for 30 minutes. Trifluoroacetic acid (final concentration: 1%) was added to the mixture to stop the reaction, and the reaction mixture was added to neutral alumina column (BOND ELUT™, available from VARIAN INC.). After the column was washed with 100 mM Tris-HCl buffer solution (pH 8.0), [^3H] 5′-AMP was eluted with 2N sodium hydroxide solution, and radioactivity of the eluent was measured by a liquid scintillation analyzer.
# A concentration of the compound to be tested which inhibits 50% of PDE4 activity was calculated from the relation between the concentration of the compound to be tested which had been added and PDE4 activity as an IC50 value.
row,Structure (SMILES),IC50
1,"CC(C)OCc1c(-c2ccc(OC(F)F)c(OC3CC3)c2)[nH]c2cn[nH]c(=O)c12 [Example 60, 2-(3-Cyclopropoxy-4-difluoromethoxyphenyl)-3-isopropoxymethyl-1,5-dihydropyrrolo[2,3-d]pyridazin-4-one]",3 nM
2,"C=CC(O)c1c(-c2ccc(OC(F)F)c(OC3CC3)c2)[nH]c2cn[nH]c(=O)c12 (stereo not drawn) [Example 75, 2-(3-Cyclopropoxy-4-difluoromethoxyphenyl)-3-(1-hydroxy-2-propenyl)-1,5-dihydropyrrolo[2,3-d]pyridazin-4-one]",1.5 nM
3,"CCCCc1c(-c2ccc(OC(F)F)c(OC3CC3)c2)[nH]c2cn[nH]c(=O)c12 [Example 8, 3-Butyl-2-(3-cyclopropoxy-4-difluoromethoxyphenyl)-1,5-dihydropyrrolo[2,3-d]pyridazin-4-one]",1.7 nM

# Second part, the compound after the results:
row,IC50,Structure (SMILES)
1,9.9 nM,"CC(C)Oc1cc(-c2[nH]c3cn[nH]c(=O)c3c2Br)ccc1OC(F)F [Example 41, 3-Bromo-2-(4-difluoromethoxy-3-isopropoxyphenyl)-1,5-dihydropyrrolo[2,3-d]pyridazin-4-one]"
2,17 nM,"Cc1c(-c2ccc(OC(F)F)c3c2C=CC(C)(C)O3)[nH]c2cn[nH]c(=O)c12 [Example 53, 2-(8-Difluoromethoxy-2,2-dimethyl-2H-chromen-5-yl)-3-methyl-1,5-dihydropyrrolo[2,3-d]pyridazin-4-one HCl adduct]"
3,6.6 nM,"CCc1c(-c2ccc(OC(F)F)c(OCC3CC3)c2)[nH]c2cn[nH]c(=O)c12 [Example 37, 2-(3-Cyclopropylmethoxy-4-difluoromethoxyphenyl)-3-ethyl-1,5-dihydropyrrolo[2,3-d]pyridazin-4-one HCl adduct]"
4,0.23 nM,"O=c1[nH]ncc2[nH]c(-c3ccc(OC(F)F)c(OC4CC4)c3)c(C(O)c3ccccc3)c12 (stereo not drawn) [Example 20, 2-(3-Cyclopropoxy-4-difluoromethoxyphenyl)-3-hydroxyphenylmethyl-1,5-dihydropyrrolo[2,3-d]pyridazin-4-one]"
